“Also recorded” adds a separate entry of the source. Each block holds one molecule with its values, some of them ahead of it.
Key:
[1] = system: BT549 human breast cancer cells; assay: WST-8 proliferation assay, BT549 (5 day); type: cell-based; conditions: BT-549, 120 h, GRP78 10 ug/ml, 5 days, read-out: Proliferation Inhibition (5 day) IC50, Breast Cancer BT549
Protocol: The inhibition effect of GRP78 antagonist on metastatic triple-negative, chemo-resistant BT549 cells was assessed using a proliferation assay.

[2] = system: mouse breast cancer cells, 4T1; assay: WST-8 proliferation assay, 4T1 (5 day); type: cell-based; conditions: 120 h, GRP78 10 ug/ml, 5 days, read-out: Proliferation Inhibition (5 day) IC50, Mouse Breast Cancer 4T1
[3] = system: chemo-resistant colon cancer cells (DLD-1); assay: WST-8 proliferation assay, DLD-1 (5 day); type: cell-based; conditions: Homo sapiens, DLD-1, 120 h; GRP78 10 ug/ml, 5 days; read-out: Proliferation Inhibition (5 day) IC50, Colon Cancer DLD-1
293 Kidney fibroblasts = assay: Proliferation assay 72 hours, 293 kidney normal cells; type: cell-based, human
Protocol: (§1) For the proliferation assay, cells were plated in 96 well plates at approximately 3000 cells per well overnight. The media was removed and fresh media with 1% FBS containing 10 μg/ml GRP78 was added along with the GRP78 antagonists. The plates were incubated for 72 hours at 37 C in 8% CO2. After 72 hours, cell number was determined with a WST-8 cell proliferation kit (Sigma). […] The only tumor cell line tested to not be inhibited by GRP78 antagonists was HT29, a colon carcinoma cell line. From our previous data above, we know U87 and D54 have ROR1 expressed on their cell surfaces.

D54 glioma cells = assay: Tumor cell proliferation assay 72 hours, D54; type: cell-based
Protocol: as §1

[4] = system: GRP78 treated dendritic cells; assay: Tolerogenic phenotype of GRP78 treated dendritic cells (flow cytometry, IL-10 ELISA); type: cell-based, human; conditions: for maturity marker CD86 on DCs exposed to GRP78/LPS: FIG. 13; for activity for reversing the tolerogenic phenotype of dendritic cells induced by GRP78: dose dependent, in words; for potency in blocking B7H3 on DCs exposed to GRP78, relative to K5: flow cytometry, FIG. 9A
Protocol: Consequently surface GRP78 binding on tumor cells leads to chemo-resistance and proliferation. […] Immature dendritic cells were differentiated from isolated CD14^+ myeloid cells with the addition of GM-CSF and IL-4 for 7 days. GRP78 (10 μg/ml) was added to the cells to produce a tolerogenic phenotype showing up regulation of PD-L1, B7H4, B7H3, IL-10 and down regulation of CD86. Therefore our GRP78 antagonists can potently block the activity of GRP78 on dendritic cells.
FIG. 9A-9C illustrates increasing amounts of the GRP78 antagonists result in blocking GRP78 which reduces checkpoint protein expression on DCs. A tolerogenic dendritic cell phenotype is induced by soluble GRP78 binding. Myeloid CD14+ cells were co-stimulated for 7 days with IL-4, and GMCSF. On day 5 LPS along with or without GRP78 and GRP78 antagonists were added. On day 8, dendritic cells were fixed and stained for flow cytometry. The percent of B7H3, PD-L1, CD86 was measured by flowcytometry and compared to GRP78 untreated dendritic cells.
To determine if GRP78 antagonists can block the tolerogenic phenotype of GRP78 treated dendritic cells, we differentiated immature dendritic cells. From 20 million human pooled PBMCs (AllCells), we isolated about 2.5 million CD14+ monocytes using positive selection with a pluribead CD14 kit (Pluriselect). […] From our multiple studies, we can isolate about 2.5 million CD14+ monocytes from 20 million PBMCs using positive selection with pluribeads (Pluriselect). […] On day 8, cells were fixed and aliquots stained at 4 C for various tolerogenic DC markers: PD-I([…]), B7H4, […], CD86, CD14, ROR1. Stained cells were analyzed byflow cytometry analysis. All antibodies for the DC markers were PE labeled from BD PharMingen. The cytokine, IL-10 (ENZO Life Sciences), was assayed by ELISA (Sigma). Negative controls wells were with GRP78 and positive controls are without GRP78 but with LPS. […] All of these antagonists decreased expression of PD-L1, B7H4, B7H3, and IL-10 from mature dendritic cells and increased expression of the maturity marker CD86 on dendritic cells (FIGS. 9A-9C).

[5] = system: HT29 colon carcinoma cells; assay: Tumor cell proliferation assay 72 hours, HT29; type: cell-based
Protocol: as §1

panel of tumor cells = assay: Tumor cell proliferation assay 72 hours, whole panel; type: cell-based; conditions: in words
Protocol: as §1

[6] = system: MDA231 breast carcinoma cells; assay: Tumor cell proliferation assay 72 hours, MDA231; type: cell-based
Protocol: as §1

U87 glioma cells = assay: Tumor cell proliferation assay 72 hours, U87; type: cell-based
Protocol: as §1

GRP78 = molecular target: T1, GRP78 (Homo sapiens, UniProt P11021); assay: GRP78 ELISA, direct binding of biotin-labelled kringles; conditions: FIG. 19A
T1 construct: purchased StressMarq
From the text: Recombinant K5-fragment biotin and Kr1 fragment-biotin were used for binding. Neutra-avidin-HRP was used to detect binding after washing with PBS.
To determine if ROR1 is expressed on immature dendritic cells, CD14^+ cells were isolated from human PBMCs and cultured in GM-CSF, and IL-4 for 7 days to produce immature DCs. […] This flow cytometry analysis supports the hypothesis that immature dendritic cells express ROR1 in which the ROR1 kringle domain binds to GRP78.
Comparison of GRP78 binding for the two kringle domains was performed by a GRP78 ELISA. GRP78 (StressMarq) (1 ug/ml@ 100 μl/well) was bound to a tissue culture coated 96 well plate overnight at 4° C. After washing 3× with PBS, the plates were blocked with superblock (Pierce) for 1 hour at room temperature. […] The plate was then washed 3× with PBS again and Neutra-avidin-HRP was added to the wells for 1 hour at room temperature. The wells were washed again with PBS and one step TMB (Pierce) was added to the wells with absorbance recorded after 30 minutes to measure kringle binding. […] To analyze these peptides for binding to GRP78, we used a 96 well competition binding assay. The assay consisted of binding GRP78 to a tissue coated 96 well plate as listed above. […] After the plate was washed, Neutra-avidin-HRP was added and bound K5 was measured by adding HRP substrate, TMB, as listed above.

[7] = system: Calu 6 lung carcinoma cells; assay: Tumor cell proliferation assay 72 hours, Calu 6; type: cell-based
Protocol: as §1

ROR1 binding to GRP78 = molecular target: T2, ROR1 binding to GRP78 (Homo sapiens, UniProt P11021); assay: Immunoprecipitation of ROR1 using GRP78-Biotin from D54 glioma cell lysate; conditions: D54 glioma cell-surface lysate, 100 nM, FIG. 5
T2 construct: purchased StressMarq; host or cells: ROR1 is endogenous, from D54 glioma cell lysate
From the text: The use of GRP78/ROR1 antagonists to break immune tolerance for the treatment of resistant cancers represents a major shift in cancer therapies. Few, if any, current anti-cancer therapies have anti-angiogenic, anti-tumor and immune modulatory activities similar to modified ROR1, ROR2, and K5 kringle domains. To understand what pathways could be responsible for these activities in tumor and dendritic cells, we used GRP78 binding and crosslinking pull down studies against the cell surface proteome of D54 glioma cells and dendritic cells. We have identified that ROR1 and ROR2 as a cell GRP78 surface receptor.
Since the mechanism of action is inconclusive for soluble, surface bound GRP78, we decided to identify the surface receptor for GRP78 on glioma (D54) cells. Using GRP78 (StressMarq) labeled with Biotin (Sigma, Mix-n-Match), pull down experiments were performed. 2×10(6) D54 glioma cells were grown in a T25 cm flask with full DMEM media overnight. The next day the media was removed and the cells were washed with ice cold PBS. To the attached cells ice cold octyl-lysis buffer (Pierce detergent cell lysis kit) was added and the cells were scrapped off and incubated in a tube with gentle agitation at 4 C for 60 minute. The microcentrifuge tube was centrifuged at 12,000×g for 20 minutes. The supernatant was gently removed and placed on ice. […]

[8] = listed as Kr1(1-91 Active Zone)frag SEQ ID NO: 19

T2 sequence (P11021 19-654): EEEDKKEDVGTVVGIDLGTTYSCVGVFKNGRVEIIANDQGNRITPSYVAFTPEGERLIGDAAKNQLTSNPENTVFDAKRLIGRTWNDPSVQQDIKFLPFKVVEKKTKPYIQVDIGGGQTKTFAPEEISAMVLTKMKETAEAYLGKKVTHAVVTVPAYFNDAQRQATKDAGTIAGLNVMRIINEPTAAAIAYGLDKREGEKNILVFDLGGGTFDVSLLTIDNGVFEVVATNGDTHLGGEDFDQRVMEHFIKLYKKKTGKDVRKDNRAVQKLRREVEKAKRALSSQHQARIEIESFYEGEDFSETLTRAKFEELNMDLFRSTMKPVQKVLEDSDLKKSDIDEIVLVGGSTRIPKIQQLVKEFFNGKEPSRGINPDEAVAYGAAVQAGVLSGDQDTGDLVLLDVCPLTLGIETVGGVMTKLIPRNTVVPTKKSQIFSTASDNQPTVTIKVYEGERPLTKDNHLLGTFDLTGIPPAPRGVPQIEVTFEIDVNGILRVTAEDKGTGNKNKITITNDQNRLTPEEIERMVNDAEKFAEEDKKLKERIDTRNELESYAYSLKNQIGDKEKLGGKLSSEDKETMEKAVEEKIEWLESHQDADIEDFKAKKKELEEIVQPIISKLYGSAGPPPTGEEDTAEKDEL
T1 sequence (P11021 19-654, species assumed): as the sequence (P11021 19-654) above

IC50 [1]: 2440 nM
IC50 [2]: 7 nM
IC50 [3]: 7 nM
Molecule: COc1cccc2c1C(=O)c1c(O)c3c(c(O)c1C2=O)C[C@@](O)(C(=O)CO)C[C@@H]3O[C@H]1C[C@H](N)[C@H](O)[C@H](C)O1 [Doxorubicin]

binding range to GRP78 (GRP78): pM range
Molecule: Kr1(1-91 Active Zone)frag SEQ ID NO:19: ROR1 kringle domain (amino acids 308-400 ROR1), expressed in 293T cells
% Proliferation Inhibition (293 Kidney fibroblasts; 0.1 μg/ml): 0 ± 5%
% Proliferation Inhibition (293 Kidney fibroblasts; 1 μg/ml): 0 ± 6%
% Proliferation Inhibition (293 Kidney fibroblasts; 10 μg/ml): 0 ± 7%
% Proliferation Inhibition (D54 glioma cells; D54, 0.1 μg/ml): 15 ± 3%
% Proliferation Inhibition (D54 glioma cells; D54, 1 μg/ml): 52 ± 6%
% Proliferation Inhibition (D54 glioma cells; D54, 10 μg/ml): 85 ± 3%
IL-10 expression of tolerogenic dendritic cells ([4]; 100 nM, FIG. 10): elimination of IL-10 expression
maturity marker CD86 on DCs exposed to GRP78/LPS [4]: completely reverses; also recorded: increases in the maturity marker CD86
maturity marker CD86 on DCs exposed to GRP78/LPS [4, 8]: increases in the maturity marker CD86
activity for reversing the tolerogenic phenotype of dendritic cells induced by GRP78 [4]: potent nM activity
activity for reversing the tolerogenic phenotype of dendritic cells induced by GRP78 [4, 8]: reverses
potency in blocking B7H3 on DCs exposed to GRP78, relative to K5 [4]: at least 65 times
potency in blocking B7H3 on DCs exposed to GRP78, relative to K5 [4, 8]: more potent
percentage of B7H4+ marker on GRP78 treated DCs ([4]; increasing concentrations, FIGS. 11, 12): decreasing percentages
% Proliferation Inhibition ([5]; HT29, 0.1 μg/ml): 0 ± 8%
% Proliferation Inhibition ([5]; HT29, 1 μg/ml): 10 ± 9%
% Proliferation Inhibition ([5]; HT29, 10 μg/ml): 0 ± 5%
inhibition of tumor cell proliferation (panel of tumor cells): potent dose response inhibition
potency of inhibition of tumor cell proliferation relative to K5 (panel of tumor cells): several fold more potent
% Proliferation Inhibition ([6]; MDA231, 0.1 μg/ml): 33 ± 8%
% Proliferation Inhibition ([6]; MDA231, 1 μg/ml): 63 ± 12%
% Proliferation Inhibition ([6]; MDA231, 10 μg/ml): 86 ± 10%
% Proliferation Inhibition (U87 glioma cells; U87, 0.1 μg/ml): 12 ± 7%
% Proliferation Inhibition (U87 glioma cells; U87, 1 μg/ml): 45 ± 7%
% Proliferation Inhibition (U87 glioma cells; U87, 10 μg/ml): 82 ± 8%
% Proliferation Inhibition ([7]; Calu 6, 0.1 μg/ml): 14 ± 2%
% Proliferation Inhibition ([7]; Calu 6, 1 μg/ml): 31 ± 5%
% Proliferation Inhibition ([7]; Calu 6, 10 μg/ml): 60 ± 5%

blocking of immunoprecipitation of ROR1 using GRP78 (ROR1 binding to GRP78): not
B1: unfolded K5: unfolded K5(3-89 Active Zone)frag SEQ ID NO:1 kringle, control (protein)
chain: SEEDCMFGNGKGYRGKRATTVTGTPCQDWAAQEPHRHSIFTPETNPRAGLEKNYCRNPDGDVGGPWCYTTNPRKLYDYCDVPQCAAPKS
modifications: unfolded; Synthetic Peptide K5(3-89 Active Zone)
